The record followed here is BindingDB's records for doi:10.1021/jm0704651 (University of Turin, 2007).

The assay concerns the target T1, Lanosterol synthase (Homo sapiens, UniProt P48449).
T1 sequence (P48449 whole entry): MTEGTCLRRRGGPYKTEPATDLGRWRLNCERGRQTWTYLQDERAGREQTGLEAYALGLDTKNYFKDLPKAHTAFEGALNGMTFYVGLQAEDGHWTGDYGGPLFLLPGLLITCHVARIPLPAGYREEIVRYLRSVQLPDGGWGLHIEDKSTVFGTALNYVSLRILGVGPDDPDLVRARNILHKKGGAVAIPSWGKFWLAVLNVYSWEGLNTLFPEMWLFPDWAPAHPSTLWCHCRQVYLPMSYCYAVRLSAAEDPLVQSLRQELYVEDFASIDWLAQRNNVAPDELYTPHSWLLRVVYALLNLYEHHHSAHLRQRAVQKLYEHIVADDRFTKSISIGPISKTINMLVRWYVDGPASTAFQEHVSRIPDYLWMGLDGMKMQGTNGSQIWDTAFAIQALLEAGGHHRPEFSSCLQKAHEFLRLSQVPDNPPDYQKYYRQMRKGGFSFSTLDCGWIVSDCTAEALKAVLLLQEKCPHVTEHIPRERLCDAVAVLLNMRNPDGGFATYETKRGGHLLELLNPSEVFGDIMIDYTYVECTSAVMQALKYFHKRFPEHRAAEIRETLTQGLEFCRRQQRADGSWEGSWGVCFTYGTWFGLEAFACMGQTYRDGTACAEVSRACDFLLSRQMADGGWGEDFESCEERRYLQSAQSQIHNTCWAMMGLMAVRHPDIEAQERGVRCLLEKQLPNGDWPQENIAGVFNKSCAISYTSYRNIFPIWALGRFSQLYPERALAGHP
In words: Inhibition of oxidosqualene cyclase.

Consider `C=CCN(C)CCCCCCOc1ccc2c(-c3ccc(Br)cc3)nn(C)c2c1`, for which the IC50 was 19 nM.

One may read the IC50 as the concentration that gives 50% inhibition. A higher IC50 goes with weaker potency.
